Measured values reported in patent US20250154198A1, “PEPTIDE INHIBITORS OF INTERLEUKIN-23 RECEPTOR” (Zealand Pharma A/S, priority 2021, published 2025).
Where two headings read alike, the source gives them in different places. *1 amine or outer side, *2 acyl side, *3 side chain or, on linkers, in order; H or OH if unused. Where a SMILES comes first, the peptide text is derived from it. Bridges are numbered along the chain shown (N, C = ends). [ ]: non-standard residue; d: D form. Trp(6-F) = N[C@@H](Cc1c[nH]c2cc(F)ccc12)C(=O)O; Lys(N3) = [N-]=[N+]=NCCCC[C@H](N)C(=O)O; 2Nal = N[C@@H](Cc1ccc2ccccc2c1)C(=O)O; AEF = NCCOc1ccc(C[C@H](N)C(=O)O)cc1; X1 = O=C(Cc1ccc(CN[*:1])cc1)[*:2]; 3Pal = N[C@@H](Cc1cccnc1)C(=O)O; αMeL = CC(C)C[C@](C)(N)C(=O)O; CH2COCH2 = O=C(C[*:1])C[*:2]; 3Amb = NCc1cccc(C(=O)O)c1; Pra = C#CC[C@H](N)C(=O)O; Dab = NCC[C@H](N)C(=O)O

T1: human IL-23R (Homo sapiens, UniProt Q5VWK5)
T1 construct: UniProtKB—Q5VWK5, amino acids 22-629; secretion signal of the plasmid (Promega N1371); expressed in transfected cells
T1 sequence (Q5VWK5 22-629): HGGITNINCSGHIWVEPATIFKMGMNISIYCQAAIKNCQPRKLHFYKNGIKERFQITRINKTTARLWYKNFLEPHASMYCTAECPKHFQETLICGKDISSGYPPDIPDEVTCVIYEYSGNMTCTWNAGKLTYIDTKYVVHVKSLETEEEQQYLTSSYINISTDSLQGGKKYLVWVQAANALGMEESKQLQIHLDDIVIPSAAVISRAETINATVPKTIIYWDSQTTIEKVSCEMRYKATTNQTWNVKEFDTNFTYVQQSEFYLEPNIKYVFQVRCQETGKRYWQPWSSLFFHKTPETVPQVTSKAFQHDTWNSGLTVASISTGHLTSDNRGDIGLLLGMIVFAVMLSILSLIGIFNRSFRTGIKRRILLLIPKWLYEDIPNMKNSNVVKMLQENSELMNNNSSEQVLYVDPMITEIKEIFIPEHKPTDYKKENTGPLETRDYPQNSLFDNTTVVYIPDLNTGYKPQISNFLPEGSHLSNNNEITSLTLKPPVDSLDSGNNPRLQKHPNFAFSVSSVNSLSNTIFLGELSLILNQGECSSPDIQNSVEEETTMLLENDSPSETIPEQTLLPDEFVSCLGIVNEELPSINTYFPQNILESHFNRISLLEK

T2: Nluc-IL23R fusion protein (human, UniProt Q5VWK5 22-629)
T2 construct: range 22-629; Stably expressed in HEK293 cells; also called hIL-23R; human IL-23R fused to a Nanoluc luciferase enzyme; not shown: Nanoluc luciferase (Promega N1371 plasmid) at the N-terminus
T2 sequence (looked up): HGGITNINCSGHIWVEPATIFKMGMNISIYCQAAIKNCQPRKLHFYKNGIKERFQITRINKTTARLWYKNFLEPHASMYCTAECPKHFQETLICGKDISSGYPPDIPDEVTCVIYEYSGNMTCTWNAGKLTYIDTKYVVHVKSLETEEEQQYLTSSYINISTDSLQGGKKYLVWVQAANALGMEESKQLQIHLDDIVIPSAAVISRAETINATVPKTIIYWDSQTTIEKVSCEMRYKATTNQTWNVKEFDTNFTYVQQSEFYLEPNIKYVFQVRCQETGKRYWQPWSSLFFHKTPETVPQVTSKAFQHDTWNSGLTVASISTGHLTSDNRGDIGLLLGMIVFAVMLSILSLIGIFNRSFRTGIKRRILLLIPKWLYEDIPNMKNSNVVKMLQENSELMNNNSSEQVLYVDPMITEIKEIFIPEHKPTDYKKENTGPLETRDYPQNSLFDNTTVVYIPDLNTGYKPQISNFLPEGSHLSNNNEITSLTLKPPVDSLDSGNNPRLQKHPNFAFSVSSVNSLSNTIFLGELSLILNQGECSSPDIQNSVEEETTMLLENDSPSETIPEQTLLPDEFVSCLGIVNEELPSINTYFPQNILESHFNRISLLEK


Assays:
human IL-23R = target: T1, human IL-23R; test: Binding assay (NanoBRET displacement of fluorophore-labelled reference compound) for estimating binding affinity to human IL-23R; details: for IL-23R inhibitory activity (in words): with reference to Ki and IC50 data of the Examples
[1] = target: IL-23 mediated phospho-STAT3 formation in DB cells (Homo sapiens, UniProt Q5VWK5); test: Functional inhibition of IL-23 mediated STAT3 signalling (phospho-STAT3 Tyr705 MSD) in DB cells; assay type: cell-based; details: DB cells, read-out: IC50 (pSTAT3)
Summary of the method: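 DB cells preincubated 15 min with compound at 37° C, then stimulated 90 min with hIL-23 at EC80. Lysate phospho-STAT3 measured by MSD, normalized to IL-23-alone and buffer wells; IC50 and maximal % inhibition from 4PL fit.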

[2] = Peptide stability in simulated intestinal fluid (SIF); assay type: in vitro ADME; details: pig
Summary of the method: (§1)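 Peptides incubated at 37°C with gentle shaking in SGF (NaCl, HCl, pH 1.2) or SIF (phosphate pH 6.8 with 10 g/L porcine pancreatin). Samples analysed by LC-HRMS; percent remaining at each timepoint calculated from absolute peak areas relative to time zero.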

[3] = Peptide stability in simulated gastric fluid (SGF); assay type: in vitro ADME; details: pig
Summary of the method: as §1

[4] = target: T2, Nluc-IL23R fusion protein; test: BRET displacement of TAMRA-labelled peptide, Nluc-IL23R membranes
[5] = simulated intestinal fluid (SIF) with porcine pancreatin, Table 3-2, porcine pancreatin, pH 6.8, 37° C., 10 μM, 1 h, read-out: SIF (% remaining 1 h)
[6] = simulated intestinal fluid (SIF) with porcine pancreatin, Table 3-2, porcine pancreatin, pH 6.8, 37° C., 10 μM, 4 h, read-out: SIF (% remaining 4 h)
[7] = simulated gastric fluid (SGF) with porcine pepsin, Table 3-3, porcine pepsin, pH 1.2, 37° C., 10 μM, 1 h, read-out: SGF (% remaining 1 h)
[8] = simulated gastric fluid (SGF) with porcine pepsin, Table 3-3, porcine pepsin, pH 1.2, 37° C., 10 μM, 4 h, read-out: SGF (% remaining 4 h)
[9] = Table 3-1, read-out: Ki hIL-23R

Molecule	remaining at 1 h, 10 μM [2, 5]	remaining at 4 h, 10 μM [2, 6]	remaining at 1 h, 10 μM [3, 7]	remaining at 4 h, 10 μM [3, 8]	Ki (human IL-23R; [9])	Ki [4]	other results
CC(=O)N[C@@H](CC(=O)O)C(=O)N[C@H]1CCCCNC(=O)CC[C@@H](C(=O)N[C@@H](CCCNC(=N)N)C(N)=O)NC(=O)[C@H](CC(C)C)NC(=O)[C@H](Cc2c[nH]c3ccccc23)NC(=O)[C@H](Cc2c[nH]c3ccccc23)NC(=O)[C@@H]2CSCC(=O)CSC[C@H](NC(=O)[C@H](CO)NC1=O)C(=O)N[C@@H](Cc1c[nH]c3ccccc13)C(=O)N[C@@H](CCC(N)=O)C(=O)N2 [Compound 7, [Ac]-DK(1c)SC(2a)WQC(2a)WWLE(1c)R-[NH2]] (HELM PEPTIDE1{[ac].D.K.S.C.W.Q.C.W.W.L.E.R.[am]}|CHEM1{[O=C(C[*:1])C[*:2]]}$PEPTIDE1,PEPTIDE1,3:R3-12:R3|PEPTIDE1,CHEM1,5:R3-1:R1|PEPTIDE1,CHEM1,8:R3-1:R2$$$V2.0)	0%	0%	0%	0%	–	–	potency depending on location of the amide bond in the [2,11] lactam bridge (in words) (human IL-23R; Compound 7 (amide closer to position 11) versus Compound 4 (closer to position 2), Table 2-3b): more active; Ki (human IL-23R; Table 2-3b, read-out: Ki IL-23R): 26.8 nM; IC50 ([1]; Table 2-3b): 159 nM
CC(C)C[C@H]1NC(=O)[C@H](Cc2ccc3ccccc3c2)NC(=O)[C@H](Cc2ccc(OCCN)cc2)NC(=O)[C@@H]2CSCC(=O)CSC[C@H](NC(=O)[C@H](CO)NC(=O)c3cccc(c3)CNC(=O)CC[C@@H](C(=O)N[C@@H](Cc3ccc(O)cc3)C(N)=O)NC1=O)C(=O)N[C@@H](Cc1c[nH]c3ccccc13)C(=O)N[C@@H](CCC(N)=O)C(=O)N2 [Compound 46, [(3-Aminomethyl)benzoyl](1c)*SC(2a)WQC(2a)[Y(2-aminoethoxy)][2-Nal][{d}L]E(1c)Y-[NH2]] ([3Amb]SCWQC[AEF][2Nal][dL]EY-NH2; linker 3-6 via CH2COCH2; lactam N-10)	9%	0%	83%	66%	48.2 nM	–	–
CC(C)C[C@]1(C)NC(=O)[C@H](Cc2c[nH]c3cc(F)ccc23)NC(=O)[C@H](Cc2ccc(OCCN)cc2)NC(=O)[C@@H]2CSCC(=O)CSC[C@H](NC(=O)[C@H](CO)NC(=O)Cc3ccc(cc3)CNC(=O)CC[C@@H](C(=O)N[C@@H](CCN)C(=O)N[C@@H](Cc3cccnc3)C(N)=O)NC1=O)C(=O)N[C@@H](Cc1c[nH]c3ccccc13)C(=O)N[C@@H](CCC(N)=O)C(=O)N2 [Compound 121, [4-Aminomethyl-phenylacetyl](1c)*SC(2a)WQC(2a)[Y(2-aminoethoxy)][6-F-Trp][2-Me-Leu]E(1c)[Dab][3-(3-Pyridyl)-Ala]-[NH2]] ([X1]SCWQC[AEF][Trp(6-F)][αMeL]E[Dab][3Pal]-NH2; linker 3-6 via CH2COCH2; lactam N-10)	–	–	–	–	0.00954 nM	–	remaining at 1 h, 10 μM ([2]; pH 6.8): 57%; remaining at 4 h, 10 μM ([2]; pH 6.8): 6%; remaining at 1 h, 10 μM ([3]; pH 1.2): 82%; remaining at 4 h, 10 μM ([3]; pH 1.2): 80%
CC(C)C[C@]1(C)NC(=O)[C@H](Cc2ccc3ccccc3c2)NC(=O)[C@H](Cc2ccc(OCCN)cc2)NC(=O)[C@@H]2CCCNC(=O)CC[C@H](NC(=O)[C@H](CO)NC(=O)Cc3ccc(cc3)CNC(=O)CC[C@@H](C(=O)N[C@@H](CCN)C(=O)N[C@@H](Cc3cccnc3)C(N)=O)NC1=O)C(=O)N[C@@H](Cc1c[nH]c3ccccc13)C(=O)N[C@@H](CCC(N)=O)C(=O)N2 [Compound 124, [4-Aminomethyl-phenylacetyl](1c)*SE(2c)WQ[Orn](2c)[Y(2-aminoethoxy)][2-Nal][2-Me-Leu]E(1c)[Dab][3-(3-Pyridyl)-Ala]-[NH2]]	35%	0%	–	89%	0.0107 nM	–	–
CC(=O)N[C@@H](CC(=O)O)C(=O)N[C@H]1CCC(=O)NCCCC[C@@H](C(=O)N[C@@H](CCCNC(=N)N)C(N)=O)NC(=O)[C@H](CC(C)C)NC(=O)[C@H](Cc2c[nH]c3ccccc23)NC(=O)[C@H](Cc2c[nH]c3ccccc23)NC(=O)[C@@H]2CSCC(=O)CSC[C@H](NC1=O)C(=O)N[C@@H](Cc1c[nH]c3ccccc13)C(=O)N[C@@H](CCC(N)=O)C(=O)N2 [Ref 5, [Ac]-DE(1c)C(2a)WQC(2a)WWLK(1c)R-[NH2], reference compound] (HELM PEPTIDE1{[ac].D.E.C.W.Q.C.W.W.L.K.R.[am]}|CHEM1{[O=C(C[*:1])C[*:2]]}$PEPTIDE1,PEPTIDE1,3:R3-11:R3|PEPTIDE1,CHEM1,4:R3-1:R1|PEPTIDE1,CHEM1,7:R3-1:R2$$$V2.0)	0%	0%	1%	0%	> 1000 nM	–	IL-23R inhibitory activity (in words) (human IL-23R): inactive; IC50 ([1]; Table 3-1): > 1000 nM
CC(=O)N[C@@H](CC(=O)O)C(=O)N[C@H]1CCC(=O)NCCCC[C@@H](C(=O)N[C@@H](CCCNC(=N)N)C(N)=O)NC(=O)[C@H](CC(C)C)NC(=O)[C@H](Cc2c[nH]c3ccccc23)NC(=O)[C@H](Cc2c[nH]c3ccccc23)NC(=O)[C@@H]2CSCC(=O)CSC[C@H](NC(=O)[C@H](CO)NC1=O)C(=O)N[C@@H](Cc1c[nH]c3ccccc13)C(=O)N2 [Ref 6, [Ac]-DE(1c)SC(2a)WC(2a)WWLK(1c)R-[NH2], reference compound] (HELM PEPTIDE1{[ac].D.E.S.C.W.C.W.W.L.K.R.[am]}|CHEM1{[O=C(C[*:1])C[*:2]]}$PEPTIDE1,PEPTIDE1,3:R3-11:R3|PEPTIDE1,CHEM1,5:R3-1:R1|PEPTIDE1,CHEM1,7:R3-1:R2$$$V2.0)	0%	0%	0%	0%	> 1000 nM	–	IL-23R inhibitory activity (in words) (human IL-23R): inactive; IC50 ([1]; Table 3-1): > 1000 nM
Ac-CTCWECWW[αMeL]CS-NH2 (linker 1-10, 3-6 via CH2COCH2; SMILES CC(=O)N[C@H]1CSCC(=O)CSC[C@@H](C(=O)N[C@@H](CO)C(N)=O)NC(=O)[C@](C)(CC(C)C)NC(=O)[C@H](Cc2c[nH]c3ccccc23)NC(=O)[C@H](Cc2c[nH]c3ccccc23)NC(=O)[C@@H]2CSCC(=O)CSC[C@H](NC(=O)[C@H]([C@@H](C)O)NC1=O)C(=O)N[C@@H](Cc1c[nH]c3ccccc13)C(=O)N[C@@H](CCC(=O)O)C(=O)N2) [Compound 33]	–	–	–	–	–	189 nM	–
GKTCWECWWXES (HELM PEPTIDE1{[ac].G.K.T.C.W.E.C.W.W.[CC(C)C[C@](C)(N[*:1])C(=O)[*:2]].E.S.[am]}|CHEM1{[O=C(C[*:1])C[*:2]]}$PEPTIDE1,PEPTIDE1,3:R3-12:R3|PEPTIDE1,CHEM1,5:R3-1:R1|PEPTIDE1,CHEM1,8:R3-1:R2$$$V2.0; SMILES CC(=O)NCC(=O)N[C@H]1CCCCNC(=O)CC[C@@H](C(=O)N[C@@H](CO)C(N)=O)NC(=O)[C@](C)(CC(C)C)NC(=O)[C@H](Cc2c[nH]c3ccccc23)NC(=O)[C@H](Cc2c[nH]c3ccccc23)NC(=O)[C@@H]2CSCC(=O)CSC[C@H](NC(=O)[C@H]([C@@H](C)O)NC1=O)C(=O)N[C@@H](Cc1c[nH]c3ccccc13)C(=O)N[C@@H](CCC(=O)O)C(=O)N2) [Compound 34]	–	–	–	–	–	65 nM	–
H-DCSCWECWWLCR-NH2 (linker 2-11, 4-7 via CH2COCH2) [Compound 3]	–	–	–	–	–	205 nM	–
Ac-DKS[Lys(N3)]WQ[Pra]W[2Nal]LER-NH2 (lactam 2-11; triazole 4-7) [Compound 23]	–	–	–	–	–	117 nM	–
